The values below are quoted from earlier work in paper PMC6606825 (Journal of Ginseng Research, 2018).

This series relates to P-gp. The settings on record: in vitro and in situ; cited from earlier work.

Take `CC(C)=CCC[C@](C)(O)[C@H]1CC[C@]2(C)[C@@H]1[C@H](O)C[C@@H]1[C@@]3(C)CC[C@H](O)C(C)(C)[C@@H]3CC[C@]12C` [20(S)-PPD, 20(S)-protopanaxadiol]: the P-gp inhibition entry is “inhibit P-gp”.

Consider `CC(C)=CCC[C@](C)(O[C@@H]1O[C@H](CO)[C@@H](O)[C@H](O)[C@H]1O)[C@H]1CC[C@]2(C)[C@@H]1[C@H](O)C[C@@H]1[C@@]3(C)CC[C@H](O)C(C)(C)[C@@H]3CC[C@]12C` [Ginsenoside compound K, 20-O-beta-D-glucopyranosyl-20(S)-protopanaxadiol], for which the P-gp inhibition entry is given as “inhibit P-gp”.
